Data reported in article PMC11935913, “Silk Nanococoons: Bio‐Nanoreactors for Enzymatic Catalytic Reactions and Applications to Alcohol Intoxication” (Small Science, 2021).

Molecular target: T1, horseradish peroxidase (HRP) (Armoracia rusticana, UniProt P00433)
T1 construct: gene PRXC1A
T1 sequence (P00433 31-338): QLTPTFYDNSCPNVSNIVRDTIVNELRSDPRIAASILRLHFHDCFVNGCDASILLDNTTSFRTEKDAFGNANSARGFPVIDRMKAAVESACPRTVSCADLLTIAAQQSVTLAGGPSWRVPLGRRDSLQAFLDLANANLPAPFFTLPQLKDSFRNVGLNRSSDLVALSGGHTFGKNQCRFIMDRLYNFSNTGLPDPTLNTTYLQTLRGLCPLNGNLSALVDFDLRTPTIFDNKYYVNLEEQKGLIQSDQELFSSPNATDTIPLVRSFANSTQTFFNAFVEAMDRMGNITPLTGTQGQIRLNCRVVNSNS
Experiment: absorbance, plate reader, oxidation by H2O2
Assay type: biochemical
Conditions: H2O2 co-substrate

SMILES | absorbance, plate reader, oxidation by H2O2 (enzyme in silk fibroin nanospheres) | absorbance, plate reader, oxidation by H2O2 (generated by GOx from glucose)
Cc1cc(-c2cc(C)c(N)c(C)c2)cc(C)c1N [3,3′,5,5′‐tetramethylbenzidine] | activity recovery of enzyme HRP in SENs was monitored by the oxidation of TMB | –
COc1cc(-c2ccc(N)c(OC)c2)ccc1N [o‐dianisidine] | – | the ODS or TMB gets oxidized by H2O2 under the catalysis of HRP
